Results taken from patent publication US20090143283A1, “Pituitary Adenylate Cyclase Activating Peptide (PACAP) Receptor (VPAC2) Agonists and Their Pharmacological Methods of Use” (Bayer Pharmaceuticals Corporation, priority 2004, published 2009).

Target: T1, VPAC1 (Homo sapiens, UniProt P32241)
T1 construct: expressed in transfected cells; host or cells: CHO
T1 sequence (P32241 31-457): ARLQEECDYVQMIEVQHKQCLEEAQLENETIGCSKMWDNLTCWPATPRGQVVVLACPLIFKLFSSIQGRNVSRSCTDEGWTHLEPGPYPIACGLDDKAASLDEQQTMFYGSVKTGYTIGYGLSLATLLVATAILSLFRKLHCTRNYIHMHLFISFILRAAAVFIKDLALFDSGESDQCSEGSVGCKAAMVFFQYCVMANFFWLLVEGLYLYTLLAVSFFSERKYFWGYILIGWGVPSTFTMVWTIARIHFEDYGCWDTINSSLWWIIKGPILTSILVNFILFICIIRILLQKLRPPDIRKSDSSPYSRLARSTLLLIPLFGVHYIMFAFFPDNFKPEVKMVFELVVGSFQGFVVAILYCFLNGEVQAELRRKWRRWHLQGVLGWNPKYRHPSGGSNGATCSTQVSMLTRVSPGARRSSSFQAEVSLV
Assay: Elevation of cAMP, agonist activity on VPAC1
Format: cell-based
Conditions: FIG. 3
Text: The signal is detected using a scintillation counter.

**Q.** PACAP-27 was tested. Which “agonist activity on VPAC1” value did it give?
**A.** potent agonist
